Reference: the NIST ThermoML archive (doi:10.1007/s10765-010-0766-0)
“And” between values parts separate entries of the source, which are not always exact repeats. Identical values can stand only once. ± gives the expanded uncertainty stated by the source.

Assay: molar heat capacity at constant volume
Conditions: Liquid, Vacuum adiabatic calorimetry

FC(F)C(F)(F)OCC(F)(F)F [2,2,2-trifluoroethyl 1,1,2,2-tetrafluoroethyl ether]
Conditions | molar heat capacity at constant volume
342.15 K, 16809 kPa | 207.06 ± 9.4 J/K/mol
342.15 K, 16812 kPa | 204.66 ± 9.2 J/K/mol
343.15 K, 17505 kPa | 207.06 ± 9.4 J/K/mol
343.15 K, 17508 kPa | 209.46 ± 9.4 J/K/mol
344.15 K, 18201 kPa | 208.46 ± 9.4 J/K/mol
344.15 K, 18203 kPa | 206.86 ± 9.4 J/K/mol
345.15 K, 18896 kPa | 207.66 ± 9.4 J/K/mol
345.15 K, 18898 kPa | 208.46 ± 9.4 J/K/mol
346.15 K, 19590 kPa | 208.86 ± 9.4 J/K/mol
346.15 K, 19592 kPa | 209.46 ± 9.4 J/K/mol
347.15 K, 20282 kPa | 208.46 ± 9.4 J/K/mol
347.15 K, 20287 kPa | 209.26 ± 9.4 J/K/mol
348.15 K, 20974 kPa | 209.86 ± 9.4 J/K/mol
348.15 K, 20978 kPa | 208.06 ± 9.4 J/K/mol
349.15 K, 21666 kPa | 210.06 ± 9.4 J/K/mol
349.15 K, 21671 kPa | 208.66 ± 9.4 J/K/mol
350.15 K, 22357 kPa | 208.66 ± 9.4 J/K/mol
350.15 K, 22360 kPa | 209.86 ± 9.4 J/K/mol
351.15 K, 23047 kPa | 209.86 ± 9.4 J/K/mol
351.15 K, 23050 kPa | 209.26 ± 9.4 J/K/mol
352.15 K, 23735 kPa | 210.86 ± 9.4 J/K/mol
352.15 K, 23739 kPa | 210.46 ± 9.4 J/K/mol
353.15 K, 24423 kPa | 210.26 ± 9.4 J/K/mol
353.15 K, 24426 kPa | 208.06 ± 9.4 J/K/mol
354.15 K, 25110 kPa | 210.86 ± 9.4 J/K/mol
354.15 K, 25114 kPa | 212.46 ± 9.6 J/K/mol
355.15 K, 25797 kPa | 211.06 ± 9.6 J/K/mol
355.15 K, 25801 kPa | 209.46 ± 9.4 J/K/mol
356.15 K, 26482 kPa | 211.86 ± 9.6 J/K/mol
356.15 K, 26486 kPa | 212.66 ± 9.6 J/K/mol
357.15 K, 27166 kPa | 211.26 ± 9.6 J/K/mol
357.15 K, 27171 kPa | 210.26 ± 9.4 J/K/mol
358.15 K, 27851 kPa | 212.26 ± 9.6 J/K/mol
358.15 K, 27855 kPa | 211.46 ± 9.6 J/K/mol
359.15 K, 5632 kPa | 208.86 ± 9.4 J/K/mol
359.15 K, 5637 kPa | 212.66 ± 9.6 J/K/mol
359.15 K, 28535 kPa | 212.86 ± 9.6 J/K/mol
359.15 K, 28538 kPa | 210.46 ± 9.4 J/K/mol
360.15 K, 6174 kPa | 219.66 ± 9.8 J/K/mol
360.15 K, 6180 kPa | 217.06 ± 9.8 J/K/mol
360.15 K, 29217 kPa | 214.06 ± 9.6 J/K/mol
360.15 K, 29220 kPa | 212.66 ± 9.6 J/K/mol
361.15 K, 6718 kPa | 218.26 ± 9.8 J/K/mol
361.15 K, 6724 kPa | 216.66 ± 9.8 J/K/mol
361.15 K, 29899 kPa | 213.46 ± 9.6 J/K/mol
361.15 K, 29902 kPa | 211.26 ± 9.6 J/K/mol
362.15 K, 7261 kPa | 215.86 ± 9.8 J/K/mol
362.15 K, 7266 kPa | 216.46 ± 9.8 J/K/mol
363.15 K, 7803 kPa | 218.26 ± 9.8 J/K/mol
363.15 K, 7809 kPa | 215.46 ± 9.6 J/K/mol
364.15 K, 8346 kPa | 219.06 ± 9.8 J/K/mol
364.15 K, 8350 kPa | 216.06 ± 9.8 J/K/mol
365.15 K, 8888 kPa | 216.66 ± 9.8 J/K/mol
365.15 K, 8892 kPa | 215.86 ± 9.8 J/K/mol
366.15 K, 9430 kPa | 217.86 ± 9.8 J/K/mol
366.15 K, 9434 kPa | 216.86 ± 9.8 J/K/mol
367.15 K, 9971 kPa | 217.46 ± 9.8 J/K/mol
367.15 K, 9976 kPa | 214.46 ± 9.6 J/K/mol
368.15 K, 10512 kPa | 219.06 ± 9.8 J/K/mol
368.15 K, 10516 kPa | 216.46 ± 9.8 J/K/mol
369.15 K, 11053 kPa | 221.26 ± 10 J/K/mol
369.15 K, 11057 kPa | 217.06 ± 9.8 J/K/mol
370.15 K, 11593 kPa | 218.86 ± 9.8 J/K/mol
370.15 K, 11598 kPa | 217.46 ± 9.8 J/K/mol
371.15 K, 12133 kPa | 218.66 ± 9.8 J/K/mol
371.15 K, 12137 kPa | 218.86 ± 9.8 J/K/mol
372.15 K, 12673 kPa | 218.86 ± 9.8 J/K/mol
372.15 K, 12677 kPa | 215.86 ± 9.8 J/K/mol
373.15 K, 13212 kPa | 219.66 ± 9.8 J/K/mol
373.15 K, 13216 kPa | 217.86 ± 9.8 J/K/mol
374.15 K, 13752 kPa | 219.46 ± 9.8 J/K/mol
374.15 K, 13756 kPa | 217.66 ± 9.8 J/K/mol
375.15 K, 14290 kPa | 217.86 ± 9.8 J/K/mol
375.15 K, 14294 kPa | 219.06 ± 9.8 J/K/mol
376.15 K, 14828 kPa | 220.86 ± 10 J/K/mol
376.15 K, 14831 kPa | 218.86 ± 9.8 J/K/mol
377.15 K, 15366 kPa | 220.06 ± 10 J/K/mol
377.15 K, 15369 kPa | 218.46 ± 9.8 J/K/mol
378.15 K, 15904 kPa | 218.46 ± 9.8 J/K/mol
378.15 K, 15906 kPa | 219.66 ± 9.8 J/K/mol
379.15 K, 16441 kPa | 218.86 ± 9.8 J/K/mol
379.15 K, 16443 kPa | 219.86 ± 9.8 J/K/mol
380.15 K, 16977 kPa | 219.26 ± 9.8 J/K/mol
380.15 K, 16980 kPa | 219.46 ± 9.8 J/K/mol
381.15 K, 17514 kPa | 219.26 ± 9.8 J/K/mol
381.15 K, 17515 kPa | 217.26 ± 9.8 J/K/mol
382.15 K, 18050 kPa | 219.86 ± 9.8 J/K/mol
382.15 K, 18051 kPa | 219.66 ± 9.8 J/K/mol
383.15 K, 18585 kPa | 221.26 ± 10 J/K/mol
383.15 K, 18586 kPa | 221.46 ± 10 J/K/mol
384.15 K, 19120 kPa | 220.66 ± 10 J/K/mol
384.15 K, 19121 kPa | 222.06 ± 10 J/K/mol
385.15 K, 19655 kPa | 218.86 ± 9.8 J/K/mol
385.15 K, 19656 kPa | 220.66 ± 10 J/K/mol
386.15 K, 20189 kPa | 221.06 ± 10 J/K/mol
387.15 K, 20723 kPa | 223.66 ± 10 J/K/mol and 224.66 ± 10 J/K/mol
388.15 K, 21256 kPa | 224.66 ± 10 J/K/mol and 224.06 ± 10 J/K/mol
389.15 K, 21789 kPa | 225.66 ± 10 J/K/mol and 224.86 ± 10 J/K/mol
390.15 K, 22322 kPa | 226.86 ± 10 J/K/mol and 224.86 ± 10 J/K/mol
391.15 K, 22854 kPa | 224.66 ± 10 J/K/mol
391.15 K, 22855 kPa | 228.46 ± 10 J/K/mol
392.15 K, 23385 kPa | 225.06 ± 10 J/K/mol
392.15 K, 23386 kPa | 227.06 ± 10 J/K/mol
393.15 K, 23917 kPa | 228.26 ± 10 J/K/mol and 226.46 ± 10 J/K/mol
394.15 K, 24448 kPa | 226.26 ± 10 J/K/mol and 223.66 ± 10 J/K/mol
395.15 K, 24978 kPa | 226.66 ± 10 J/K/mol and 225.06 ± 10 J/K/mol
396.15 K, 25507 kPa | 229.06 ± 10 J/K/mol
396.15 K, 25508 kPa | 226.86 ± 10 J/K/mol
397.15 K, 26037 kPa | 228.06 ± 10 J/K/mol
397.15 K, 26038 kPa | 226.06 ± 10 J/K/mol
398.15 K, 26566 kPa | 229.06 ± 10 J/K/mol
398.15 K, 26567 kPa | 227.06 ± 10 J/K/mol
399.15 K, 27094 kPa | 227.06 ± 10 J/K/mol
399.15 K, 27096 kPa | 227.86 ± 10 J/K/mol
400.15 K, 27622 kPa | 228.66 ± 10 J/K/mol
400.15 K, 27623 kPa | 228.46 ± 10 J/K/mol
401.15 K, 28150 kPa | 229.66 ± 10 J/K/mol
401.15 K, 28151 kPa | 227.66 ± 10 J/K/mol
402.15 K, 28677 kPa | 226.66 ± 10 J/K/mol
402.15 K, 28678 kPa | 227.26 ± 10 J/K/mol
403.15 K, 29204 kPa | 229.26 ± 10 J/K/mol
403.15 K, 29205 kPa | 227.86 ± 10 J/K/mol
404.15 K, 29730 kPa | 227.86 ± 10 J/K/mol
404.15 K, 29732 kPa | 229.86 ± 10 J/K/mol
